Results reported in patent publication US9345691B2, “Beta-lactam compounds for enhancing T cell-mediated immune responses” (STEM CELL MEDICINE LTD., priority 2011, dated 2016).

Key:
CD4+ human T cells = assay: Human Autoimmune and Inflammatory Response Gene Array, anti-CD3 stimulated T cells; format: cell-based; settings: 120 min anti-CD3; for % increase by Amp.: ampicillin 50 μg/ml
Protocol: T cells were purified from the peripheral bloods of healthy human donors (Blood Bank, Sheba Medical center). The whole blood was incubated (20 min, 22° C.) with RosetteSep™ human T cell enrichment mixture (StemCell Technologies, Vancouver, Canada). The remaining unsedimented cells were then loaded onto lymphocyte separation medium (ICN Biomedicals, Irvine, Calif.), isolated by density centrifugation, and washed with PBS. […] In a second round of purification, CD3^+ T cells were labeled for selection with a magnetically coupled mAb against CD4 (Miltenyi Biotec, Auburn, Calif.).
Human CD4 T cells were isolated as described, and incubated in 24 well plates (Nunc), 4×10^6 cells/ml with plate bound anti-human CD3 (OKT3) at 2 μg/ml. The stimulation was performed in RPMI medium supplemented with 0.1% BSA. […] RNA was extracted from samples and used to prepare probes for gene array in accord with the manufacturer's instructions (SuperArray Bioscience, Frederick, Md.). Adequate labeling of the probes was tested before hybridization. Three healthy donors were tested in stimulation with cefuroxime. The membranes were analyzed online with the Image Data Acquisition and Expression Analysis (SuperArray Bioscience).
The Human Autoimmune and Inflammatory Response Gene Array (SuperArray Bioscience corporation, Frederick, Md., USA) was used for analysis of gene expression by the T cells. This array contains 367 genes including cytokines, chemokines and their receptors, transcription factors and signaling proteins. […] Analysis of the results was performed using the GEArray analysis program (www.SuperArray.com). […] To verify the results detected by the gene array study, a panel of six genes was designed and tested by real-time PCR: CCR4, ACVR2, JAK1, STAT4, TLR2 and NFKBIE. The cDNA that was used was prepared from the same RNA used for the gene array experiment.

[1] = system: encephalitogenic BP10 T-cell line; assay: Adoptive EAE by BP10 line stimulated in vitro with test substance; format: in vivo, rat; settings: BP10 line stimulated 3 days with MBP in presence of 50 μg/ml; 10^7 cells IP per rat
Excerpt: The ability of a compound to enhance T cell activity may be determined, for example, using an in vivo assay testing the effect of a given compound on the severity of adoptive (passive) EAE, namely, EAE which is induced by the injection of activated encephalitogenic T cell line to the model animal. In order to test a compound, the encephalitogenic T cells are activated in the presence of the compound prior to injection. An exemplary procedure is described in the Examples section hereinbelow.
Antigen-specific T-cell lines were established from lymph node cells that had been stimulated with myelin basic protein (MBP; 10 μg/ml) for 3 days in stimulation medium as described below. Following stimulation, the T-cell blasts were isolated on Lympho-prep (Nycomed Pharma, Oslo, Norway) and seeded in propagation medium. Propagation medium was identical to stimulation medium without autologous serum, but supplemented with fetal calf serum 10% and T-cell growth factors from the supernatant of Con A stimulated spleen cells 10% (Mor et al. (1990) J Clin Invest, 85, 1594-1598). Animals were injected intra-peritoneally with 10^7 MBP-stimulated T cells, following 6-8 cycles of in vitro stimulations. It is known that MBP-reactive lines undergo a reduction in pathogenicity after 6 or more in vitro stimulations. In some experiments the BP10 line was stimulated with phorbol myristate acetate (PMA; 50 ng/ml) and ionomycin (500 ng/ml) for 3 days in stimulation medium, without antigen-presenting cells.
Active EAE was induced by subcutaneous injection of 25 μg guinea-pig MBP (GpMBP) in complete Freund's adjuvant (CFA). CFA was prepared by adding 4 mg/ml Mycobacterium tuberculosis H37Ra (Difco, Mich.) to incomplete Freund's adjuvant (IFA). Adoptive EAE was transferred by intra-peritoneal injection of guinea-pig MBP-activated cells of the BP10 line as described in Mor et al. (1993) J Clin Invest, 92, 2199-2206. […] Clinical scoring was: +1, paralysis of tail; +1.5, paresis of posterior paws and ataxia; +2, paraplegia; +3, paralysis extending to thoracic spine; +4, a moribund state.
Treatment with cefuroxime in vivo could affect many different host agents involved in EAE or AA as well as influencing the rats' bacterial flora. To test whether the antibiotic might directly modify the behavior of effector T cells, an encephalitogenic T-cell line was stimulated in the presence or absence of cefuroxime in vitro. The weakly encephalitogenic BP10 line was used, and was stimulated for 3 days with MBP in the presence or absence of cefuroxime (50 μg/ml). The activated T cells were then washed to remove the antibiotic, the T cells were injected intra-peritoneally into naïve recipient rats (10^7 per rat), and EAE was scored. The BP10 line at later stimulations was used, when its pathogenic potential is reduced, allowing to detect both suppression and enhancement of disease. […] To rule out antigen presenting cells (APC) as the target of the beta-lactam antibiotic, the encephalitogenic BP10 line was stimulated without APC using PMA (50 ng/ml) and Ionomycin (500 ng/ml) in the presence or absence of cefuroxime.

SMILES: CC1(C)S[C@@H]2[C@H](NC(=O)[C@H](N)c3ccccc3)C(=O)N2[C@H]1C(=O)O [ampicillin]
- number of the 57 cefuroxime-down-regulated genes up-regulated (CD4+ human T cells; 50 μg/ml): 56 genes
- % increase by Amp. (CD4+ human T cells; gene ACTB): +196%
- % increase by Amp. (CD4+ human T cells; gene ACVR1, A low expression): +53%
- % increase by Amp. (CD4+ human T cells; gene ACVR2, A low expression): +85%
- % increase by Amp. (CD4+ human T cells; gene CCL5): +25%
- % increase by Amp. (CD4+ human T cells; gene CCL11): +107%
- % increase by Amp. (CD4+ human T cells; gene CCR4): +31%
- % increase by Amp. (CD4+ human T cells; gene CCR6): +83%
- % increase by Amp. (CD4+ human T cells; gene CCR7): +43%
- % increase by Amp. (CD4+ human T cells; gene CD28): +175%
- % increase by Amp. (CD4+ human T cells; gene CD40LG): +67%
- % increase by Amp. (CD4+ human T cells; gene CREBBP): +49%
- % increase by Amp. (CD4+ human T cells; gene CXCL10): +25%
- % increase by Amp. (CD4+ human T cells; gene EGR3): −25%
- % increase by Amp. (CD4+ human T cells; gene GFI1): +10%
- % increase by Amp. (CD4+ human T cells; gene HRAS, A low expression): −12%
- % increase by Amp. (CD4+ human T cells; gene IL1B, A low expression): +64%
- % increase by Amp. (CD4+ human T cells; gene IL2RB): +93%
- % increase by Amp. (CD4+ human T cells; gene IL2RG, A low expression): +78%
- % increase by Amp. (CD4+ human T cells; gene IL9R): No change
- % increase by Amp. (CD4+ human T cells; gene IL16, A low expression): +14%
- % increase by Amp. (CD4+ human T cells; gene IRAK1): +171%
- % increase by Amp. (CD4+ human T cells; gene JAK1): +161%
- % increase by Amp. (CD4+ human T cells; gene JUN): +65%
- % increase by Amp. (CD4+ human T cells; gene LTA): +48.5%
- % increase by Amp. (CD4+ human T cells; gene MAP2K4): +150%
- % increase by Amp. (CD4+ human T cells; gene MAP3K1, A low expression): +63%
- % increase by Amp. (CD4+ human T cells; gene MAP3K2): +93%
- % increase by Amp. (CD4+ human T cells; gene MAP3K7): +124%
- % increase by Amp. (CD4+ human T cells; gene MAPK9): +46%
- % increase by Amp. (CD4+ human T cells; gene NFKB1): +31%
- % increase by Amp. (CD4+ human T cells; gene NFKB2): +195%
- % increase by Amp. (CD4+ human T cells; gene NFKBIE): +132%
- % increase by Amp. (CD4+ human T cells; gene NFKBIL1): +191%
- % increase by Amp. (CD4+ human T cells; gene PAK1): +111%
- % increase by Amp. (CD4+ human T cells; gene PIN1): +105%
- % increase by Amp. (CD4+ human T cells; gene RANBP5): +108%
- % increase by Amp. (CD4+ human T cells; gene REL): +132%
- % increase by Amp. (CD4+ human T cells; gene RFX5): +137%
- % increase by Amp. (CD4+ human T cells; gene RFXAP): +131%
- % increase by Amp. (CD4+ human T cells; gene SDF2): +71%
- % increase by Amp. (CD4+ human T cells; gene SELL): +124%
- % increase by Amp. (CD4+ human T cells; gene SMAD4): +85%
- % increase by Amp. (CD4+ human T cells; gene SMAD7, A low expression): +34%
- % increase by Amp. (CD4+ human T cells; gene SP3): +47%
- % increase by Amp. (CD4+ human T cells; gene SRF): +58%
- % increase by Amp. (CD4+ human T cells; gene STAT1): +85%
- % increase by Amp. (CD4+ human T cells; gene STAT4): +11%
- % increase by Amp. (CD4+ human T cells; gene STAT6): no change
- % increase by Amp. (CD4+ human T cells; gene TGFBR3): +139%
- % increase by Amp. (CD4+ human T cells; gene TGIF, A low expression): +72%
- % increase by Amp. (CD4+ human T cells; gene TLR2, A low expression): +419%
- % increase by Amp. (CD4+ human T cells; gene TNFRSF11A, A low expression): +81%
- % increase by Amp. (CD4+ human T cells; gene TNFα): +39%
- % increase by Amp. (CD4+ human T cells; gene TRAF5, A low expression): +47%
- % increase by Amp. (CD4+ human T cells; gene TRAF6, A low expression): +39%
- % increase by Amp. (CD4+ human T cells; gene YY1): +152%
- severity of adoptive EAE [1]: did not increase the severity of EAE
